Assay results published in patent US11084829B2, “Ubiquitin-specific-processing protease 7 (USP7) modulators and uses thereof” (RAPT THERAPEUTICS, INC., priority 2018, dated 2021).

Target: USP7 (Homo sapiens, UniProt Q93009)
Assay: USP7 inhibitory potency (IC50)
Format: biochemical
Procedure: Activity for compounds described herein is provided in Table 2, wherein potency levels are provided as follows: (Potency: USP7 IC50: A<0.01 μM; B=0.01-0.1 μM; C=>0.1 μM.

Chain of USP7 (Q93009 whole entry): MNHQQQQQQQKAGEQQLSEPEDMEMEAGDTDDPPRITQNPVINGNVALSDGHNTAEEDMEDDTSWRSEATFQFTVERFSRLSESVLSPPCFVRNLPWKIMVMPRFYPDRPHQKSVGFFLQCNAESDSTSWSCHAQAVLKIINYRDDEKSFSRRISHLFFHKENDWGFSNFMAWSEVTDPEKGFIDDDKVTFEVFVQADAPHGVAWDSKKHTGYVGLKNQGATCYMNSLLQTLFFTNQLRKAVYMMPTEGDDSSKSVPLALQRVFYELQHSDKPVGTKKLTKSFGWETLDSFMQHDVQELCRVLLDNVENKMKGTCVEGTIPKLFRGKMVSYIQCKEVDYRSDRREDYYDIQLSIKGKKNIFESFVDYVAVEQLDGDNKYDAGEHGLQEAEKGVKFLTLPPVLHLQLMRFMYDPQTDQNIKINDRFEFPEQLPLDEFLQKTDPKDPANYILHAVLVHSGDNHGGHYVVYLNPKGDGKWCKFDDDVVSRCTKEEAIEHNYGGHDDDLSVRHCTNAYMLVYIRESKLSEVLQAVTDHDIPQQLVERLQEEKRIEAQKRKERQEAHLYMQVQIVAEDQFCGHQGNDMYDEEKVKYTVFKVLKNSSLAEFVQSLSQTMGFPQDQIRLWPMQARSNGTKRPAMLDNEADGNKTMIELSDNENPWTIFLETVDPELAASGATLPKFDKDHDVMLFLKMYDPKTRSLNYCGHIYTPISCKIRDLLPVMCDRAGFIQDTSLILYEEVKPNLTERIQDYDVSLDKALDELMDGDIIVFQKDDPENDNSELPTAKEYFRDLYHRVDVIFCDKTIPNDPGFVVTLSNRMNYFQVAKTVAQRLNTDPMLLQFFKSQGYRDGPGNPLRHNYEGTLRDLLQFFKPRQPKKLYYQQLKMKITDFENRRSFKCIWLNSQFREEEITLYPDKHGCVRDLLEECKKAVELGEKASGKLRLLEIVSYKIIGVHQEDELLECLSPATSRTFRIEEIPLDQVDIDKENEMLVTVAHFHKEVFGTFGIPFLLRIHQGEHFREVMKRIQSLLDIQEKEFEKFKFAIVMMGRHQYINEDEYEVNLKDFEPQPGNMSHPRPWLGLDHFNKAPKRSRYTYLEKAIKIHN

First: Cc1cc(Cl)cc(-c2ccnc3cc(CN4C(=O)CCC4=O)sc23)c1CN1CC2CCC1CN2 (stereo not shown) [Example 9, 1-((7-(2-((2,5-diazabicyclo[2.2.2]octan-2-yl)methyl)-5-chloro-3-methylphenyl)thieno[3,2-b]pyridin-2-yl)methyl)pyrrolidine-2,5-dione]
Second: Cc1cc(Cl)cc(-c2ccnc3cc(CN4C(=O)CCC4=O)sc23)c1CN1C[C@@H](C)N[C@@H](C)C1 [Example 19, 1-((7-(5-chloro-2-(((3 S,5R)-3,5-dimethylpiperazin-1-yl)methyl)-3-methylphenyl)thieno[3,2-b]pyridin-2-yl)methyl)pyrrolidine-2,5-dione]
The IC50 of the first is lower: under 10 nM for the first, 10 to 100 nM for the second.

Compared with `Cc1cc(Cl)cc(-c2ccnc3cc(CN4C(=O)C5C(C4=O)C5(C)C)sc23)c1CN1CCN(C)C[C@@H]1C` (stereo partly drawn) [Example 23, 3-((7-(5-chloro-2-(((S)-2,4-dimethylpiperazin-1-yl)methyl)-3-methylphenyl)thieno[3,2-b]pyridin-2-yl)methyl)-6,6-dimethyl-3-azabicyclo[3.1.0]hexane-2,4-dione], `Cc1cc(Cl)cc(-c2ccnc3cc(CN4C(=O)C5CC5C4=O)sc23)c1CN1C[C@@H](C)NC[C@@H]1C` (stereo partly drawn) [Example 36, 3-((7-(5-chloro-2-(((2S,5R)-2,5-dimethylpiperazin-1-yl)methyl)-3-methylphenyl)thieno[3,2-b]pyridin-2-yl)methyl)-3-azabicyclo[3.1.0]hexane-2,4-dione] is higher in IC50: under 10 nM for the first, 10 to 100 nM for the second. The first is the more potent here.

First: Cc1cc(Cl)cc(-c2ccnc3c(F)c(CN4C(=O)CCN(C)C4=O)sc23)c1C[C@@H]1CNCCO1 [Example 148, (R)-3-((7-(5-chloro-3-methyl-2-(morpholin-2-ylmethyl)phenyl)-3-fluorothieno[3,2-b]pyridin-2-yl)methyl)-1-methyldihydropyrimidine-2,4(1H,3H)-dione]
Second: Cc1cc(Cl)cc(-c2ccnc3cc(CN4C(=O)CN(C)C4=O)sc23)c1CC1CNCCO1 (stereo not shown) [Example 117, 3-((7-(5-chloro-3-methyl-2-(morpholin-2-ylmethyl)phenyl)thieno[3,2-b]pyridin-2-yl)methyl)-1-methylimidazolidine-2,4-dione]
The IC50 of the first is higher: 10 to 100 nM for the first, under 10 nM for the second. The second is the more potent here.

`Cc1cc(Cl)cc(-c2ncnc3cc(CN4C(=O)COC4=O)sc23)c1C[C@@H]1CNCC(C)(C)O1` [Example 234, (R)-3-((4-(5-chloro-2-((6,6-dimethylmorpholin-2-yl)methyl)-3-methylphenyl)thieno[3,2-d]pyrimidin-6-yl)methyl)oxazolidine-2,4-dione] and `Cc1cc(Cl)cc(-c2ncnc3cc(CN4C(=O)CN(C)C4=O)sc23)c1C[C@@H]1CNCC(C)(C)O1` [Example 275, (R)-3-((4-(5-chloro-2-((6,6-dimethylmorpholin-2-yl)methyl)-3-methylphenyl)thieno[3,2-d]pyrimidin-6-yl)methyl)-1-methylimidazolidine-2,4-dione] cannot be ordered by IC50: under 10 nM for the first, under 10 nM for the second.

First: Cc1cc(Cl)cc(-c2ncnc3cc(CN4C(=O)CCN(C)C4=O)sc23)c1CC1CNCC(C)(C)O1 (stereo not shown) [Example 193, 3-((4-(5-chloro-2-((6,6-dimethylmorpholin-2-yl)methyl)-3-methylphenyl)thieno[3,2-d]pyrimidin-6-yl)methyl)-1-methyldihydropyrimidine-2,4(1H,3H)-dione]
Second: Cc1cc(Cl)cc(-c2ncnc3cc(CN4C(=O)CCC4C)sc23)c1C[C@@H]1CNCC(C)(C)O1 (stereo partly drawn) [Example 241, 1-((4-(5-chloro-2-(((R)-6,6-dimethylmorpholin-2-yl)methyl)-3-methylphenyl)thieno[3,2-d]pyrimidin-6-yl)methyl)-5-methylpyrrolidin-2-one]
The IC50 of the first is lower: under 10 nM for the first, 10 to 100 nM for the second.

`CN1CCC(=O)N(Cc2cc3ncnc(-c4cc(Cl)cc(Cl)c4CC4CNCCO4)c3s2)C1=O` (stereo not shown) [Example 205, 3-((4-(3,5-dichloro-2-(morpholin-2-ylmethyl)phenyl)thieno[3,2-d]pyrimidin-6-yl)methyl)-1-methyldihydropyrimidine-2,4(1H,3H)-dione] and `Cc1cc(Cl)cc(-c2ncnc3cc(CN4C(=O)CCC4=O)sc23)c1C[C@@H]1CNCCO1` [Example 197, (R)-1-((4-(5-chloro-3-methyl-2-(morpholin-2-ylmethyl)phenyl)thieno[3,2-d]pyrimidin-6-yl)methyl)pyrrolidine-2,5-dione] cannot be ordered by IC50: under 10 nM for the first, under 10 nM for the second.

First: Cc1cc(Cl)cc(-c2ccnc3cc(CN4C(=O)C5CC5C4=O)sc23)c1CN1CCNC(=O)C1C (stereo not shown) [Example 40, 3-((7-(5-chloro-3-methyl-2-((2-methyl-3-oxopiperazin-1-yl)methyl)phenyl)thieno[3,2-b]pyridin-2-yl)methyl)-3-azabicyclo[3.1.0]hexane-2,4-dione]
Second: Cc1cc(Cl)cc(-c2ccnc3cc(CN4C(=O)C5CC5C4=O)sc23)c1CN1CCCNCC1C (stereo not shown) [Example 38, 3-((7-(5-chloro-3-methyl-2-((2-methyl-1,4-diazepan-1-yl)methyl)phenyl)thieno[3,2-b]pyridin-2-yl)methyl)-3-azabicyclo[3.1.0]hexane-2,4-dione]
The IC50 of the first is higher: 10 to 100 nM for the first, under 10 nM for the second. The second is the more potent here.

`CCC1NC(=O)N(Cc2cc3ncnc(-c4cc(Cl)cc(C)c4C[C@@H]4CNCCO4)c3s2)C1=O` (stereo partly drawn) [Example 245, 3-((4-(5-chloro-3-methyl-2-(((R)-morpholin-2-yl)methyl)phenyl)thieno[3,2-d]pyrimidin-6-yl)methyl)-5-ethylimidazolidine-2,4-dione] and `Cc1cc(Cl)cc(-c2ncnc3cc(CN4C(=O)CCNC4=O)sc23)c1C[C@@H]1CNCCO1` [Example 247, (R)-3-((4-(5-chloro-3-methyl-2-(morpholin-2-ylmethyl)phenyl)thieno[3,2-d]pyrimidin-6-yl)methyl)dihydropyrimidine-2,4(1H,3H)-dione] cannot be ordered by IC50: under 10 nM for the first, under 10 nM for the second.

`C[C@H]1CNC[C@H](C)N1Cc1c(Cl)cc(Cl)cc1-c1ncnc2cc(CN3C(=O)CCC3=O)sc12` [Example 92, 1-((4-(3,5-dichloro-2-(((2S,6S)-2,6-dimethylpiperazin-1-yl)methyl)phenyl)thieno[3,2-d]pyrimidin-6-yl)methyl)pyrrolidine-2,5-dione] and `Cc1cc(Cl)cc(-c2ncnc3cc(CN4C(=O)CCN(CCF)C4=O)sc23)c1CN1[C@@H](C)CNC[C@@H]1C` [Example 258, 3-((4-(5-chloro-2-(((2S,6S)-2,6-dimethylpiperazin-1-yl)methyl)-3-methylphenyl)thieno[3,2-d]pyrimidin-6-yl)methyl)-1-(2-fluoroethyl)dihydropyrimidine-2,4(1H,3H)-dione] cannot be ordered by IC50: under 10 nM for the first, under 10 nM for the second.

`Cc1cc(C#N)cc(-c2ncnc3cc(CN4C(=O)C5CC5C4=O)sc23)c1CN1CCNC[C@@H]1C` (stereo partly drawn) [Example 60, 3-(6-((2,4-dioxo-3-azabicyclo[3.1.0]hexan-3-yl)methyl)thieno[3,2-d]pyrimidin-4-yl)-5-methyl-4-(((S)-2-methylpiperazin-1-yl)methyl)benzonitrile] and `C[C@H]1CNCCN1Cc1c(F)cc(Cl)cc1-c1ncnc2cc(CN3C(=O)C4CC4C3=O)sc12` (stereo partly drawn) [Example 61, 3-((4-(5-chloro-3-fluoro-2-(((S)-2-methylpiperazin-1-yl)methyl)phenyl)thieno[3,2-d]pyrimidin-6-yl)methyl)-3-azabicyclo[3.1.0]hexane-2,4-dione] fall in the same range of IC50: 10 to 100 nM for the first, 10 to 100 nM for the second.

First: Cc1cc(Cl)cc(-c2ncnc3cc(CN4C(=O)N(C)C(C)(C)C4=O)sc23)c1CC1CNCCO1 (stereo not shown) [Example 200, 3-((4-(5-chloro-3-methyl-2-(morpholin-2-ylmethyl)phenyl)thieno[3,2-d]pyrimidin-6-yl)methyl)-1,5,5-trimethylimidazolidine-2,4-dione]
Second: Cc1cc(Cl)cc(-c2ncnc3cc(CN4CCCC4=O)sc23)c1CC1CNCCO1 (stereo not shown) [Example 174, 1-((4-(5-chloro-3-methyl-2-(morpholin-2-ylmethyl)phenyl)thieno[3,2-d]pyrimidin-6-yl)methyl)pyrrolidin-2-one]
The IC50 of the first is lower: under 10 nM for the first, over 100 nM for the second.

First: Cc1cc(Cl)cc(-c2ncnc3cc(CN4C(=O)C5CC5C4=O)sc23)c1C[C@H]1CN(C(=O)C(F)(F)F)CCO1 (stereo partly drawn) [Example 198, 3-((4-(5-chloro-3-methyl-2-(((S)-4-(2,2,2-trifluoroacetyl)morpholin-2-yl)methyl)phenyl)thieno[3,2-d]pyrimidin-6-yl)methyl)-3-azabicyclo[3.1.0]hexane-2,4-dione]
Second: Cc1cc(Cl)cc(-c2ncnc3cc(CN4CC(CO)CC4=O)sc23)c1C[C@@H]1CNCC(C)(C)O1 (stereo partly drawn) [Example 231, 1-((4-(5-chloro-2-(((R)-6,6-dimethylmorpholin-2-yl)methyl)-3-methylphenyl)thieno[3,2-d]pyrimidin-6-yl)methyl)-4-(hydroxymethyl)pyrrolidin-2-one]
The IC50 of the first is higher: over 100 nM for the first, 10 to 100 nM for the second. The second is the more potent here.

`Cc1cc(Cl)cc(-c2ccnc3cc(Cn4c(=O)ccn(CC(F)(F)F)c4=O)sc23)c1CN1CCNCCC1=O` [Example 255, 3-((7-(5-chloro-3-methyl-2-((7-oxo-1,4-diazepan-1-yl)methyl)phenyl)thieno[3,2-b]pyridin-2-yl)methyl)-1-(2,2,2-trifluoroethyl)pyrimidine-2,4(1H,3H)-dione] and `Cc1cc(Cl)cc(-c2ccnc3cc(Cn4c(=O)ccn(CC(F)(F)F)c4=O)sc23)c1CN1CCCNCC1=O` [Example 256, 3-((7-(5-chloro-3-methyl-2-((2-oxo-1,4-diazepan-1-yl)methyl)phenyl)thieno[3,2-b]pyridin-2-yl)methyl)-1-(2,2,2-trifluoroethyl)pyrimidine-2,4(1H,3H)-dione] fall in the same range of IC50: 10 to 100 nM for the first, 10 to 100 nM for the second.

`Cc1cc(Cl)cc(-c2ncnc3cc(Cn4c(=O)ccn(C)c4=O)sc23)c1CN1C[C@@H](C)NC[C@@H]1C` [Example 66, 3-((4-(5-chloro-2-(((2S,5R)-2,5-dimethylpiperazin-1-yl)methyl)-3-methylphenyl)thieno[3,2-d]pyrimidin-6-yl)methyl)-1-methylpyrimidine-2,4(1H,3H)-dione] and `C[C@H]1CNC[C@H](C)N1Cc1c(Cl)cc(Cl)cc1-c1ccnc2cc(CN3C(=O)CCN(C)C3=O)sc12` [Example 49, 3-((7-(3,5-dichloro-2-(((2S,6S)-2,6-dimethylpiperazin-1-yl)methyl)phenyl)thieno[3,2-b]pyridin-2-yl)methyl)-1-methyldihydropyrimidine-2,4(1H,3H)-dione] cannot be ordered by IC50: under 10 nM for the first, under 10 nM for the second.
